± gives the expanded uncertainty stated by the source.
Assays:
[1] = for mass density: 101.33 kPa
[2] = refractive index (Na D-line) (dimensionless); conditions: 101.33 kPa, Liquid, Standard Abbe refractometry

SMILES	mass density ([1]; 298.15 K, Liquid) [kg/m3]	refractive index ([2]; 298.15 K)	mass density ([1]; 293.15 K, Liquid) [kg/m3]	refractive index ([2]; 293.15 K)	also measured
Cc1ccccc1O [2-methylphenol]	1046 ± 1.8	1.5467 ± 0.0008			vapor or sublimation pressure ([1]; 463.55 K, Liquid): 94.95 ± 5 kPa
Cc1cccc(O)c1 [3-methylphenol]	1030 ± 1.8	1.5395 ± 0.0008			vapor or sublimation pressure ([1]; 473.55 K, Liquid): 94.95 ± 5 kPa
Cc1ccc(O)cc1 [4-methylphenol]		1.5391 ± 0.0008			mass density ([1]; 298.15 K, Crystal): 1154 ± 2.1 kg/m3; vapor or sublimation pressure ([1]; 475.35 K, Liquid): 94.95 ± 5 kPa
Brc1ccccc1 [bromobenzene]			1488.2 ± 2.8	1.5571 ± 0.0008	vapor or sublimation pressure ([1]; 426.85 K, Liquid): 94.95 ± 5 kPa
CN(C)C=O [dimethylformamide]			948.7 ± 1.6	1.4305 ± 0.0008	vapor or sublimation pressure ([1]; 424.15 K, Liquid): 94.95 ± 5 kPa
O=[N+]([O-])c1ccccc1 [nitrobenzene]	1198 ± 2.2	1.55 ± 0.0008			vapor or sublimation pressure ([1]; 481.15 K, Liquid): 94.95 ± 5 kPa

Source: the NIST ThermoML archive (doi:10.1016/j.fluid.2006.12.010)
